Data on three molecules can be found in ChEMBL document CHEMBL1129169, “Preparation of N-methoxycarbonyl-N-[2-nitro-4(5)-propylthiophenyl]thiourea as prodrugs of albendazole” (1996).

“And” between values parts separate entries of the source, which are not always exact repeats. Equal values may be shown once.

Experiment [1] is filed under the species Rattus norvegicus. Put plainly: Bioconversion to albendazole sulfonic in rats at 8 hr; detectable. Type of experiment: functional, organism-based.
Experiment [2] is filed under the species Rattus norvegicus. Put plainly: Bioconversion to albendazole sulfonic in rats at 6 hr; not detectable. In kind it is functional, organism-based.
The species named for experiment [3] is Rattus norvegicus. Kind of experiment: Bioconversion to albendazole in rats at 8 hr. In kind it is functional.
For experiment [4], the species on record is Rattus norvegicus. Kind of experiment: Bioconversion to albendazole sulfonic in rats at 4 hr; not detectable. Type of experiment: functional, organism-based.
For experiment [5], the species on record is Rattus norvegicus. Kind of experiment: Bioconversion to albendazole in rats at 8 hr; not detectable. Type of experiment: functional, organism-based.
The species named for experiment [6] is Rattus norvegicus. Kind of experiment: Bioconversion to albendazole sulfonic in rats at 10 hr. Type of experiment: functional.
Experiment [7] is filed under the species Rattus norvegicus. Kind of experiment: Bioconversion to albendazole in rats at 10 hr; detectable. In kind it is functional, organism-based.
The species entered for experiment [8] is Rattus norvegicus. Put plainly: Bioconversion to albendazole sulfonic in rats at 12 hr. In kind it is functional.
Experiment [9] is filed under the species Rattus norvegicus. Kind of experiment: Bioconversion to albendazole in rats at 4 hr; not detectable. In kind it is functional, organism-based.
The species named for experiment [10] is Rattus norvegicus. Put plainly: Bioconversion to albendazole sulfonic in rats at 10 hr; not detectable. Type of experiment: functional, organism-based.
The species entered for experiment [11] is Rattus norvegicus. Kind of experiment: Bioconversion to albendazole sulfonic in rats at 2 hr; not detectable. Type of experiment: functional, organism-based.
The species entered for experiment [12] is Rattus norvegicus. Kind of experiment: Bioconversion to albendazole sulfonic in rats at 4 hr. Type of experiment: functional.
The species entered for experiment [13] is Rattus norvegicus. Put plainly: Bioconversion to albendazole in rats at 12 hr; not detectable. Type of experiment: functional, organism-based.
The species entered for experiment [14] is Rattus norvegicus. Kind of experiment: Bioconversion to albendazole sulfonic in rats at 12 hr; not detectable. In kind it is functional, organism-based.
Experiment [15] is filed under the species Rattus norvegicus. Put plainly: Bioconversion to albendazole sulfonic in rats at 8 hr; not detectable. In kind it is functional, organism-based.
Experiment [16] is filed under the species Rattus norvegicus. Kind of experiment: Bioconversion to albendazole in rats at 2 hr; not detectable. Type of experiment: functional, organism-based.
The species named for experiment [17] is Rattus norvegicus. Put plainly: Bioconversion to albendazole in rats at 2 hr; detectable. Type of experiment: functional, organism-based.
For experiment [18], the species on record is Rattus norvegicus. Kind of experiment: Bioconversion to albendazole in rats at 6 hr; detectable. Type of experiment: functional, organism-based.
The species named for experiment [19] is Rattus norvegicus. Put plainly: Bioconversion to albendazole in rats at 12 hr. In kind it is functional.
For experiment [20], the species on record is Rattus norvegicus. Put plainly: Bioconversion to albendazole in rats at 8 hr; detectable. In kind it is functional, organism-based.
The species entered for experiment [21] is Rattus norvegicus. Kind of experiment: Bioconversion to albendazole sulfonic in rats at 2 hr. Type of experiment: functional.
The species entered for experiment [22] is Rattus norvegicus. Put plainly: Bioconversion to albendazole in rats at 12 hr; detectable. Type of experiment: functional, organism-based.
Experiment [23] is filed under the species Rattus norvegicus. Put plainly: Bioconversion to albendazole sulfonic in rats at 6 hr. Type of experiment: functional.
The species entered for experiment [24] is Rattus norvegicus. Put plainly: Bioconversion to albendazole in rats at 4 hr; detectable. Type of experiment: functional, organism-based.
The species named for experiment [25] is Rattus norvegicus. Kind of experiment: Bioconversion to albendazole in rats at 2 hr. In kind it is functional.
For experiment [26], the species on record is Rattus norvegicus. Kind of experiment: Bioconversion to albendazole sulfonic in rats at 8 hr. In kind it is functional.
For experiment [27], the species on record is Rattus norvegicus. Put plainly: Bioconversion to albendazole in rats at 6 hr; not detectable. In kind it is functional, organism-based.

Regarding `CCCSc1ccc([N+](=O)[O-])c(NC(=S)NC(=O)OC)c1`, the Activity entry in the experiment listed under Rattus norvegicus [1] was “Detectable”; in the experiment filed under Rattus norvegicus [2] it was “Not detectable”; in the experiment listed under Rattus norvegicus [3], 0.0792 µg/mL; in the experiment listed under Rattus norvegicus [4], “Not detectable”; in the experiment filed under Rattus norvegicus [5], “Not detectable”; in the experiment listed under Rattus norvegicus [6], 0.0889 µg/mL. The Activity entry in the experiment filed under Rattus norvegicus [7] was “Detectable”; in the experiment listed under Rattus norvegicus [8], 0.1622 µg/mL; in the experiment filed under Rattus norvegicus [9] it was “Not detectable”; in the experiment listed under Rattus norvegicus [10], “Not detectable”; in the experiment listed under Rattus norvegicus [11], “Not detectable”; in the experiment filed under Rattus norvegicus [12], 0.096 µg/mL. The Activity entry in the experiment listed under Rattus norvegicus [13], in the experiment listed under Rattus norvegicus [14], in the experiment filed under Rattus norvegicus [15] and in the experiment filed under Rattus norvegicus [16] was “Not detectable” each time.
With `CCCSc1ccc2[nH]c(NC(=O)OC)nc2c1` [ALBENDAZOLE], the Activity entry in the experiment listed under Rattus norvegicus [17] is “Detectable”; in the experiment filed under Rattus norvegicus [18], “Detectable”; in the experiment listed under Rattus norvegicus [19] it was 0.098 µg/mL; in the experiment listed under Rattus norvegicus [20], “Detectable”; in the experiment filed under Rattus norvegicus [21] it was 0.593 µg/mL and 0.245 µg/mL; in the experiment filed under Rattus norvegicus [22], “Detectable”. In addition, the Activity was 0.2875 µg/mL and 0.4081 µg/mL in the experiment filed under Rattus norvegicus [23]; 0.2696 µg/mL and 0.1297 µg/mL in the experiment filed under Rattus norvegicus [6]; “Detectable” in the experiment listed under Rattus norvegicus [7]; 0.3084 µg/mL and 0.1935 µg/mL in the experiment filed under Rattus norvegicus [12]; “Detectable” in the experiment filed under Rattus norvegicus [24]; 0.055 µg/mL in the experiment filed under Rattus norvegicus [25]. The Activity in the experiment listed under Rattus norvegicus [26] is 0.28 µg/mL and 0.1113 µg/mL.
As to `CCCSc1ccc(NC(=S)NC(=O)OC)c([N+](=O)[O-])c1`, the Activity result was “Not detectable” in the experiment filed under Rattus norvegicus [27]; “Detectable” in the experiment filed under Rattus norvegicus [17]; “Detectable” in the experiment filed under Rattus norvegicus [18]; “Detectable” in the experiment filed under Rattus norvegicus [20]; “Not detectable” in the experiment filed under Rattus norvegicus [2]; 0.1802 µg/mL and 0.1088 µg/mL in the experiment filed under Rattus norvegicus [21]. The Activity result in the experiment listed under Rattus norvegicus [22] is “Detectable”; in the experiment filed under Rattus norvegicus [23], 0.1633 µg/mL; in the experiment filed under Rattus norvegicus [7], “Detectable”; in the experiment listed under Rattus norvegicus [8], 0.2704 µg/mL; in the experiment listed under Rattus norvegicus [9], “Not detectable”; in the experiment listed under Rattus norvegicus [10], “Not detectable”. Also, the Activity in the experiment listed under Rattus norvegicus [12] was 0.0927 µg/mL and 0.0958 µg/mL; in the experiment filed under Rattus norvegicus [15], “Not detectable”.
